Measurements published in PubChem BioAssay AID1918942 (Molecular Pharmacology Branch, DTP, NCI, 2023).

Tested on: 743489-274-T-PDC complex spheroid viability
Assay: Anticancer human tumor 743489-274-T-PDC patient-derived renal cell carcinoma cell line growth inhibition
Conditions: for IC50: curve of first compound; for viability, T/C: stronger effect = lower value
In short: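 Complex spheroids of tumor cells with HUVEC and human MSCs, exposed to iadademstat combined with other agents. Each agent tested in half-log steps from near clinical Cmax (else 10 microM top), DMSO ≤0.25%.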
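Further: spheroids exposed to compounds for 7 days before readout.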
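Wherever viability, T/C is given: 100% = DMSO vehicle control wells.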

## COc1cc(Nc2ncc3c(n2)-c2ccc(Cl)cc2C(c2c(F)cccc2OC)=NC3)ccc1C(=O)O + NC1CC1c1ccc(-c2cccc(O)c2)cc1
Second compound 0.1 µM
  IC50: > 1000 nM
Second compound 0.316 µM
  IC50: > 1000 nM
Second compound 1 µM
  IC50: > 1000 nM
Second compound 3.16 µM
  IC50: > 1000 nM
Second compound 10 µM
  IC50: > 1000 nM
Second compound 0.1 µM, first compound 0.00316 µM
  viability, T/C: 103%
Second compound 0.1 µM, first compound 0.01 µM
  viability, T/C: 105%
Second compound 0.1 µM, first compound 0.0316 µM
  viability, T/C: 82.8%
Second compound 0.1 µM, first compound 0.1 µM
  viability, T/C: 72.2%
Second compound 0.1 µM, first compound 0.316 µM
  viability, T/C: 82.4%
Second compound 0.1 µM, first compound 1 µM
  viability, T/C: 81.5%
Second compound 0.316 µM, first compound 0.00316 µM
  viability, T/C: 97.7%
Second compound 0.316 µM, first compound 0.01 µM
  viability, T/C: 100%
Second compound 0.316 µM, first compound 0.0316 µM
  viability, T/C: 85.4%
Second compound 0.316 µM, first compound 0.1 µM
  viability, T/C: 90%
Second compound 0.316 µM, first compound 0.316 µM
  viability, T/C: 81.2%
Second compound 0.316 µM, first compound 1 µM
  viability, T/C: 80.5%
Second compound 1 µM, first compound 0.00316 µM
  viability, T/C: 111%
Second compound 1 µM, first compound 0.01 µM
  viability, T/C: 91.4%
Second compound 1 µM, first compound 0.0316 µM
  viability, T/C: 84.3%
Second compound 1 µM, first compound 0.1 µM
  viability, T/C: 74.3%
Second compound 1 µM, first compound 0.316 µM
  viability, T/C: 74%
Second compound 1 µM, first compound 1 µM
  viability, T/C: 82.5%
Second compound 3.16 µM, first compound 0.00316 µM
  viability, T/C: 92.9%
Second compound 3.16 µM, first compound 0.01 µM
  viability, T/C: 85.7%
Second compound 3.16 µM, first compound 0.0316 µM
  viability, T/C: 89.5%
Second compound 3.16 µM, first compound 0.1 µM
  viability, T/C: 77.6%
Second compound 3.16 µM, first compound 0.316 µM
  viability, T/C: 72.8%
Second compound 3.16 µM, first compound 1 µM
  viability, T/C: 79%
Second compound 10 µM, first compound 0.00316 µM
  viability, T/C: 100%
Second compound 10 µM, first compound 0.01 µM
  viability, T/C: 102%
Second compound 10 µM, first compound 0.0316 µM
  viability, T/C: 85.3%
Second compound 10 µM, first compound 0.1 µM
  viability, T/C: 83.5%
Second compound 10 µM, first compound 0.316 µM
  viability, T/C: 82.9%
Second compound 10 µM, first compound 1 µM
  viability, T/C: 78.4%

## O=C(C=Cc1cccc(S(=O)(=O)Nc2ccccc2)c1)NO + NC1CC1c1ccc(-c2cccc(O)c2)cc1
Second compound 0.1 µM
  IC50: 860 nM
Second compound 0.316 µM
  IC50: 1010 nM
Second compound 1 µM
  IC50: 1550 nM
Second compound 3.16 µM
  IC50: 915 nM
Second compound 10 µM
  IC50: 1380 nM
Second compound 0.1 µM, first compound 0.00949 µM
  viability, T/C: 107%
Second compound 0.1 µM, first compound 0.03 µM
  viability, T/C: 98.5%
Second compound 0.1 µM, first compound 0.0949 µM
  viability, T/C: 93%
Second compound 0.1 µM, first compound 0.3 µM
  viability, T/C: 67.8%
Second compound 0.1 µM, first compound 0.949 µM
  viability, T/C: 49.7%
Second compound 0.1 µM, first compound 3 µM
  viability, T/C: 28.5%
Second compound 0.316 µM, first compound 0.00949 µM
  viability, T/C: 102%
Second compound 0.316 µM, first compound 0.03 µM
  viability, T/C: 93.2%
Second compound 0.316 µM, first compound 0.0949 µM
  viability, T/C: 88%
Second compound 0.316 µM, first compound 0.3 µM
  viability, T/C: 64.9%
Second compound 0.316 µM, first compound 0.949 µM
  viability, T/C: 53.1%
Second compound 0.316 µM, first compound 3 µM
  viability, T/C: 34%
Second compound 1 µM, first compound 0.00949 µM
  viability, T/C: 98.7%
Second compound 1 µM, first compound 0.03 µM
  viability, T/C: 99.3%
Second compound 1 µM, first compound 0.0949 µM
  viability, T/C: 84.2%
Second compound 1 µM, first compound 0.3 µM
  viability, T/C: 84.1%
Second compound 1 µM, first compound 0.949 µM
  viability, T/C: 58.8%
Second compound 1 µM, first compound 3 µM
  viability, T/C: 35.9%
Second compound 3.16 µM, first compound 0.00949 µM
  viability, T/C: 98.5%
Second compound 3.16 µM, first compound 0.03 µM
  viability, T/C: 88.1%
Second compound 3.16 µM, first compound 0.0949 µM
  viability, T/C: 90.8%
Second compound 3.16 µM, first compound 0.3 µM
  viability, T/C: 69%
Second compound 3.16 µM, first compound 0.949 µM
  viability, T/C: 50.2%
Second compound 3.16 µM, first compound 3 µM
  viability, T/C: 24.1%
Second compound 10 µM, first compound 0.00949 µM
  viability, T/C: 98.9%
Second compound 10 µM, first compound 0.03 µM
  viability, T/C: 97%
Second compound 10 µM, first compound 0.0949 µM
  viability, T/C: 87.8%
Second compound 10 µM, first compound 0.3 µM
  viability, T/C: 81.4%
Second compound 10 µM, first compound 0.949 µM
  viability, T/C: 56.6%
Second compound 10 µM, first compound 3 µM
  viability, T/C: 33.9%
